Source: patent US10562935B2, “Stapled peptides and uses thereof” (London Health Sciences Centre Research Inc., priority 2015, dated 2020)
Bridges are numbered along the chain shown (N, C = ends).

Tests used:
[1] = tested on: RHAMM-overexpressing (LR21) cells; experiment: Cell invasion assay (Boyden chamber with MATRIGEL, Chemicon ECM555); format: cell-based; details: for Invasion (% inhib.): % inhibition relative to positive control, 10 ng/mL of peptide
Procedure, shortened: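 Serum-starved RHAMM-overexpressing LR21 cells (7.5×10^4) placed in upper Boyden chamber over MATRIGEL-coated filter, with or without 10 ng/mL peptide; 30% FBS/DMEM chemoattractant below. Invaded cells quantified after 20 h by CyQUANT GR fluorescence (480/520 nm); mean ± SD, n=3, versus 30% serum control.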

[2] = tested on: IMR90 human fetal lung fibroblasts; experiment: Fibrosis assay: active TGF-β levels in TGF-β treated fibroblasts (ELISA); format: cell-based; details: % inhibition relative to positive control
Method: Compounds 132, 133, 135, 150, 152, 157-161, 265-269, 275, 277, and 278 were evaluated for their ability to inhibit fibrosis. IMR90 human fetal lung fibroblasts were obtained from ATCC and maintained in DMEM supplemented with 10% fetal bovine serum. In order to examine the effect of peptides on myofibroblast differentiation, 80% confluent cultures were serum starved overnight prior to addition of TGF-β (2 ng/mL, R&D Systems). Cells were treated with TGF-β for 24 hours prior to addition of peptides (10 ng/mL). 48 hours after addition of peptides, culture supernatants were collected and levels of active TGF-β measured using commercially available TGF-β ELISA (Quantikine, R&D Systems).
Values are the Mean and SDM n=3 replicates. *p<0.05, **p<0.01, ***p<0.001 when compared to the +TGFβ1 control. In FIG. 47, where bars are labeled with two compound numbers (“133/150” and “135/152”) this means that the data were pooled for the indicated compounds, i.e., for the non-acetylated and acetylated versions of the indicated peptides.

[3] = Direct HA-binding ELISA of biotinylated peptides on HA coated plates (Example 4); set-up: key to HA binding: absorbance (color) read at 450 nm; details: for HA binding: as repeated in tables 16, 18, 20; for HA direct binding (OD): optical density, summary tables 15, 17, 19
Procedure, shortened: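 N-terminally biotinylated peptides (AEEA spacer) added to HA-coated wells at 0.8 or 0.08 μM, n=3, overnight at 4° C with shaking; biotin-labeled 7 kDa RHAMM as positive control. Bound peptide detected with streptavidin-HRP (1 hr, room temperature) and TMB substrate (5-10 min), absorbance at 450 nm.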

[4] = tested on: RHAMM-overexpressing (LR21) cells; experiment: Cell migration assay (Boyden chamber, Chemicon ECM510); format: cell-based; details: for Migration (% inhib.): % inhibition relative to positive control; for inhibition of cell migration (in words): 10 ng/mL peptide, 20 hours, compared to 30% serum control
Procedure, shortened: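 Serum-starved LR21 cells (7.5×10^4) placed in the upper Boyden chamber with or without 10 ng/mL peptide, with 30% FBS in DMEM as lower-chamber chemoattractant. Cells crossing the membrane after 20 h quantified by CyQUANT GR fluorescence (480/520 nm); mean of n=3, compared with 30% serum control.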

[5] = Function blocking score: total percent inhibition over migration, invasion, inflammation and fibrosis assays divided by number of assays; format: cell-based; details: total percent inhibition for all assays tested divided by number of assays
Method: As documented in the Examples hereinabove, a variety of cyclized peptides were produced that contained the HA-binding domain 1 (HABD1), HA-binding domain 2 (HABD2), or both HABD1 and HABD2. These peptides were evaluated for helicity, direct HA binding and in a number of cell-based bioassays (effects on migration, invasion, NFkB activation, and TGFβ1 production) that are relevant to inflammation and fibrosis. The relationships amongst helicity, HA-binding, and biofunction were evaluated. Peptides were divided into three groups for this analysis: (1) peptides containing HABD1 (“HABD1”); (2) peptides containing HABD2 (“HABD2”); and peptides containing most or all of HABD1 and all of HABD2 (“HABD1+HABD2”). R^2 values were calculated to quantify the relationships between helicity, HA-binding, and biofunction were evaluated.
The results of this analysis for the HABD1 peptides are shown below in Tables 15 and 16. Table 16 provides a function blocking scores for each of the tested peptides and provides R^2 values showing the relationship between HA binding and helicity (“HA binding vs. CD”), HA binding and function-blocking score (“HA binding vs. FBS”) and helicity vs. function-blocking score (“CD vs. FBS”). The same type of summaries are provided for the HABD2 peptides in Tables 17 and 18 below, and for the HABD1+HABD2 peptides in Tables 19 and 20 below.
Function blocking scores were calculated as the total percent inhibition achieved by the peptide for all assays the peptides were tested in, divided by the number of assays. Assays included migration, invasion, inflammation and fibrosis assays. Not all peptides were tested all of the assays. All peptides were included for deriving R^2 values (Pearson's formula).

Substance | HA binding [3] | HA direct binding (OD) [3] | Invasion (% inhib.) [1] | Fibrosis (% inhib.) [2] | Migration (% inhib.) [4] | Function blocking score (FBS) [5] | inhibition of cellular invasion (in words) ([1]; 10 ng/mL peptide, 20 hours, compared to 30% serum control) | inhibition of cell migration (in words) [4]
Ac-VSKLRSQLVKRKQN-NH2 [Compound 132] | 0.03 | 0.03 OD | 66 % inhib. | 0 % inhib. | 36 % inhib. | 17 | significantly inhibited cellular invasion | significantly inhibit cell migration
Ac-NLKQKIKHVVKLKDENSQLKSEVSKLRSQLVKRKQN-NH2 [Compound 275] | 0.11 | 0.11 OD | 0 % inhib. | 0 % inhib. | 60 % inhib. | 12 | – | significantly inhibit cell migration
Ac-(cyclo-5,9)-NLKQ[EIKHK]VKLKDE-NH2 (Ac-NLKQEIKHKVKLKDE-NH2; lactam 5-9; SMILES CC[C@H](C)[C@@H]1NC(=O)[C@@H](NC(=O)[C@H](CCC(N)=O)NC(=O)[C@H](CCCCN)NC(=O)[C@H](CC(C)C)NC(=O)[C@H](CC(N)=O)NC(C)=O)CCC(=O)NCCCC[C@@H](C(=O)N[C@H](C(=O)N[C@@H](CCCCN)C(=O)N[C@@H](CC(C)C)C(=O)N[C@@H](CCCCN)C(=O)N[C@@H](CC(=O)O)C(=O)N[C@@H](CCC(=O)O)C(N)=O)C(C)C)NC(=O)[C@H](Cc2c[nH]cn2)NC(=O)[C@H](CCCCN)NC1=O) [Compound 158] | 0.005 | 0.005 OD | – | 31 % inhib. | 43 % inhib. | 22 | – | significantly inhibit cell migration

Second part, led by results:

HA binding [3] | HA direct binding (OD) [3] | Substance | Invasion (% inhib.) [1] | Fibrosis (% inhib.) [2] | Migration (% inhib.) [4] | Function blocking score (FBS) [5] | inhibition of cellular invasion (in words) ([1]; 10 ng/mL peptide, 20 hours, compared to 30% serum control) | inhibition of cell migration (in words) [4]
0.01 | 0.01 OD | Ac-(cyclo-11-15, cyclo-16-20)-KIKHVVKLKD[ENSQK][ESEVK]KLRSQLVKRIK-NH2 [Compound 267] | 0 % inhib. | 0 % inhib. | 0 % inhib. | 0 | – | –
0.02 | 0.02 OD | Ac-(cyclo-4,8)-NLK[EKIKK]VVKLKDE-NH2 (Ac-NLKEKIKKVVKLKDE-NH2; lactam 4-8; SMILES CC[C@H](C)[C@@H]1NC(=O)[C@H](CCCCN)NC(=O)[C@@H](NC(=O)[C@H](CCCCN)NC(=O)[C@H](CC(C)C)NC(=O)[C@H](CC(N)=O)NC(C)=O)CCC(=O)NCCCC[C@@H](C(=O)N[C@H](C(=O)N[C@H](C(=O)N[C@@H](CCCCN)C(=O)N[C@@H](CC(C)C)C(=O)N[C@@H](CCCCN)C(=O)N[C@@H](CC(=O)O)C(=O)N[C@@H](CCC(=O)O)C(N)=O)C(C)C)C(C)C)NC(=O)[C@H](CCCCN)NC1=O) [Compound 157] | – | 38 % inhib. | 0 % inhib. | 8.6 | – | –
0.19 | 0.19 OD | Ac-(cyclo-10-14, cyclo-15-19)-KIKHVVKLK[KENSE][EKSEK]SKLRSQLVKRK-NH2 [Compound 269] | 0 % inhib. | 0 % inhib. | 61 % inhib. | 13 | – | significantly inhibit cell migration
